Eight molecules from patent EP0485217A2, “Hydantoin derivatives, and their use in preventing and treating diabetic complications and circulatory organ diseases” (priority 1990, dated 1992) can be followed below.

For one assay, the system named is right atrium. Kind of assay: Extracted heart, right atrium sample (heart rate). The settings on record: Cavia porcellus, read-out: Heart Rates. Details: species or system Hartley guinea pigs. The source says:
(§1) Stunned by receving a blow on the heads, Hartley guinea pigs (weighing 300-400 g) were fixed on the back regions to extract their hearts. […] This vessel was previously filled with a Krebs-Henseleit solution and the above gaseous mixture continued to be supplied thereto during preparing the sample.
(§2) In order to prepare the sample, the right and left atria were cut out of the ventricular muscule along the atriventricular sulcus from the center of both the right and left auricles.
The contraction of the sample was recorded on a recorder through an FD pickup simultaneously with counting and recording the beat with an instantaneous cardiograph unit.

Another assay has as its system left atrium. Kind of assay: Extracted heart, left atrium sample (systole force, electrically stimulated). Details: species or system Hartley guinea pigs. The settings on record: Cavia porcellus, read-out: Systole Forces.
Excerpt: as §1, §2
While a platinum bipolar electrode attached to the above-mentioned micro wire clamp was in contact with the atrium, stimuli were given to it by 1-Hz, 2-msec. and 10-V rectangular waves derived through an electrical stimulator and an isolator to record the movement of said atrium with an FD pickup connected with it through silk thread.

Assay [1] concerns platelet aggregation. Kind of assay: Ex-vivo inhibition of platelet aggregation after intravenous administration. The assay is classed as in vivo, rat. The settings on record: inhibition relative to control, blood 5 minutes after dosing; for Collagen (10 μM): inducer collagen. Here is the method: The thus treated blood was centrifuged at 1500 rpm for 5 minutes to obtain a supernatant fluid in the form of PRP. The residues were then again centrifuged at 4°C and 3000 rpm for 10 minutes to obtain a supernatant fluid in the form of PPP. […] of PRP were put in a PRP cuvette having a stirrer bar with the transmittance set at 0%, while 300 µl of PPP were put in a PPP cuvette with the transmittance set at 100%. After 1-minute preincubation, 20 µl of an aggregation inducer (collagen or ADP) were introduced.
A control group, to which dimethylacetamide and tartaric acid in a ratio of 2/3 were given in a quantity of 1 ml/kg, was treated as with the test group. Upon the addition of the aggregation inducer, a maximum transmittance change was read to find a platelet aggregation change in %.

Assay [2] concerns platelet aggregation. In words: In-vitro inhibition of platelet aggregation in platelet rich plasma. The assay is classed as cell-based, rat. Here is the method: Then, the residues were centrifuged to obtain a supernatant fluid in the form of platelet poor plasma (PPP for short). For measurement, an amount of PRP collected from two to four animals was pooled. The platelet aggregation test was carried out with NBS HEMA TRACER (Model PAT-60 made by Niko Bioscience Co., Ltd.). […] After 1-minute preincubation, 3 µl of the test compound were added and, one minute later, 30 µl of an aggregation inducer (collagen or ADP) were introduced. Added to a control group was the test compound together with 3 µl of dimethyl sulfoxide. Upon the addition of the aggregation inducer, a maximum transmittance change was read to find a platelet aggregation change in %.

Assay [3] has as its system Extracted Guinea Pigs' Aortae. In words: Relaxation of extracted thoracic aorta contracted by KCl or NE. Details: species or system Hartley guinea pigs. The settings on record: Cavia porcellus. The source says: Stunned by receiving a blow on the head, Hartley guinea pigs (weighing 300-500 g) were fixed at the back regions, and the thoracic aortae were then extracted to prepare helical samples, each ca. 2 mm in width and ca. 25 mm in length. Each sample was suspended in a Magnus tube under a load of ca. 1 g and connected at the upper end with an FD pickup by means of silk thread to record its isometric tension change on a recorder.
Prior to initiating the experiment, the sample was allowed to stand for 60 to 90 minutes, during which the Krebs-Henseleit solution was replaced by a new one at an interval of 20 to 30 minutes. […] Finally, papaverine was additionally provided to regulate the final concentration to 2 x 10- ^5g/ml, thereby observing and recording what relaxing reaction took place.
The state stabilized by the addition of KCI or NE was defined as a 100% relaxation rate, on the basis of which what reaction took place at each concentration was relatively estimated.

The target of a further assay is aldose reductase (Rattus norvegicus, UniProt P07943). Kind of assay: Action on aldose reductase inhibition (method of Kador et al.). The settings on record: 50 % inhibition of aldose reductase. It is filed as biochemical. The source says:
Chem.", Vol. 8, page 81 (1978) to detrermine how much they inhibited aldose reductase.
Note that IC50 is an index to the 50 % inhibition of aldose reductase.

Assay [4] concerns coronary artery bloodstream. Kind of assay: Coronary bloodstream of dogs under anesthesia (i.v.). It is filed as in vivo. The settings on record: anesthetized dogs, control 8.7±2.1. Here is the method:
Fully developed, mongrel male and female dogs were each put under anesthesia with sodium pentobarbital and subjected to commissurotomy while artificial respiration was applied to them. The coronary artery bloodstream was determined with an electromagnetic bloodstream probe attached to the ramus circumflexus of the left coronary artery.
Each of the test compounds was administered to the animal through a cannula fixedly inserted into the cephalic vein.

A further assay concerns poikilocytes. In words: Ex-vivo amelioration of poikilocytes (filtration under pressure of erythrocyte suspension). The assay is classed as in vivo. The settings on record: rat. Here is the method:
(§3) Five minutes after the test compound had been intravenously administered to the tail of a rat, blood was gathered from the descending aorta of the rat which was lightly etherized. Added to this blood was citric acid (3.8% sodium citrate) in a volume ratio of 1/10.
Blood gathered with the addition of citric acid was centrifuged at 4°C and 1500 rpm for 10 minutes. The supernatant fluid was discarded. Added to the residues was physiological saline in an amount of about 1.5 times as large, again followed by 10-minute centrifugation at 4°C and 1500 rpm. The supernatant fluid was discarded. One hundred (100) µl of erythrocytes left upon such procedures repeated twice were diluted with physiological saline to prepare 50 ml of a 0.2 % erythrocyte suspension. This suspension was incubated at 37°C for 5 minutes, cooled down to room temperature and examined to find how much the poikilocytes were ameliorated by the filtration-under-pressure procedures described by F. Katsuraya in "Geriatric Medicine", Vol. 20, pp. 151-156 (1982).
To this end, the suspension sample was passed from a continuous feeder through a Millipore membrane having a mean pore size of […] at a rate of 5 ml/min, during which the pressure on the upstream side of the membrane was measured through a pressure transducer with a pressure amplifier and, at the same time, was recorded on a polygraph chart sheet.

The test system of the next assay is erythrocytes. In words: Oxygen dissociation of erythrocytes (HEMOX-ANALYZER), ex vivo. The assay is classed as in vivo, rat. The settings on record: 10 mg/kg; control mean 31.08.
Excerpt: as §3
Blood gathered with the addition of heparin was used to determine the oxygen dissociation of the erthro- cytes with HEMOX-ANALYZER.

Setting [5] is: Rattus norvegicus, read-out: IC50 Collagen.
Where [6] appears, read: 10^-4(M), right atrium, suppression.
The mark [7] stands for this setting: 10^-5(M), right atrium, suppression.
Setting [8] is: 10^-4(M), left atrium, suppression.
[9] abbreviates: 10^-5(M), left atrium, suppression.
[10] abbreviates: 50% relaxation, contraction by KCl 2.5 x 10^-2M, read-out: IC50(M) Contraction by KCl.
[11] abbreviates: 50% relaxation, contraction by norepinephrine 10^-6 g/ml, read-out: IC50(M) Contraction by NE.
The mark [12] stands for this setting: rat PRP, aggregation inducer collagen, read-out: IC50 Collagen.

Read-outs that look alike come from different tables or passages of the source. Marks after values point to notes of the source that are not given here. Where only a bound is given, the exact number is not on record here.

As to `CC(C)NCC(O)COc1cccc2ccccc12` (stereo not shown) [Control A, propranolol, reference compound], in the assay on right atrium, the inhibition at 10 µM is more than 20% and the inhibition at 100 µM was more than 20%. In the assay on left atrium, the inhibition at 10 µM was more than 20% and the inhibition at 100 µM is more than 20%.

On to `CC(=O)Oc1ccccc1C(=O)O` [Aspirin, reference compound], for which the “Collagen (10 μM)” value with platelet aggregation [1] (30.0 mg/kg intravenously) was found to be 77%. The IC50 in the assay on platelet aggregation [2] (setting [5]) amounted to 210 µM.

Regarding `CC(C(O)c1ccc(O)cc1)N1CCC(Cc2ccccc2)CC1` (stereo not shown) [B, ifenprodil, reference compound], the inhibition at 100 µM with right atrium (setting [6]) is more than 20%; in the assay with left atrium (setting [8]), 10 to 20%. Also, the inhibition at 10 µM with right atrium (setting [7]) was more than 20%; in the assay on left atrium (setting [9]), 0%.

Take `COc1cc(/C=C/C(=O)N2CCN(CC(=O)N3CCCC3)CC2)cc(OC)c1OC` [Cinepazid, reference compound]: the IC50 in assay [3] (read-out: IC50(M) Contraction by KCl) worked out at 0.002 M; in assay [3] (read-out: IC50(M) Contraction by NE), 0.001 M.

Turning to `O=C1NC(=O)[C@@]2(C[C@@H](C(=O)N3CCN(CC=Cc4ccccc4)CC3)Oc3ccc(F)cc32)N1` [Compound 3, 4-cinnamyl-1-{(2S,4S)-6-fluoro-2',5'-dioxospiro[chromane-4,4'-imidazolidine]-2-carbonyl}piperazine], the IC50 was 0.41 µM against aldose reductase, more than 0.001 M in assay [3] (setting [10]), more than 0.001 M in assay [3] (setting [11]) and 370 µM in the assay on platelet aggregation [2] (setting [12]). The inhibition at 100 µM with right atrium (setting [6]) is more than 20%; with left atrium (setting [8]), 10 to 20%. In addition, the results for the inhibition at 10 µM in the assay with right atrium (setting [7]) and in the assay on left atrium (setting [9]) were 10 to 20% and 0%, respectively.

As for `COc1ccc2c(c1)c(CC(=O)O)c(C)n2C(=O)c1ccc(Cl)cc1` [Indomethacin, reference compound], the “Collagen (10 μM)” value in the assay on platelet aggregation [1] (30.0 mg/kg intravenously) amounted to 49%. The IC50 in the assay with platelet aggregation [2] (setting [5]) is 68 µM.

With `O=C1NC(=O)[C@@]2(C[C@@H](C(=O)N3CCC(Cc4ccccc4)CC3)Oc3ccc(F)cc32)N1` [Compound 1], in the assay with platelet aggregation [1] (1.0 mg/kg intravenously, inducer ADP 1 x 10^-6M), the “ADP (1 x 10^-6M)” value is recorded as 44* %. Moreover, the “Collagen (10 μM)” value in the assay with platelet aggregation [1] (1.0 mg/kg intravenously) was determined as 57%. In addition, the half-inhibitory concentration (IC50) is 0.31 µM against aldose reductase, 1.3e-06 M in [3] (setting [10]), 1e-05 M in assay [3] (setting [11]) and 630 µM in the assay with platelet aggregation [2] (setting [12]). Besides, the inhibition at 100 µM with right atrium (setting [6]) is 0%; in the assay on left atrium (setting [8]) it was 10 to 20%. Further, the inhibition at 10 µM in the assay with right atrium (setting [7]) and with left atrium (setting [9]) was 0% each time. Moreover, the “C.B.S. (coronary bloodstream)” value in assay [4] (0.1 mg/kg i.v.) is 9.6±6.9. This molecule showed an Amelioration in % in the assay with poikilocytes (0.1 mg/kg intravenously) of 29.3%.

Turning to `O=C1NC(=O)[C@@]2(C[C@@H](C(=O)N3CCN(C(c4ccccc4)c4ccccc4)CC3)Oc3ccc(F)cc32)N1` [Compound 2, 4-diphenylmethyl-1-{(2S,4S)-6-fluoro-2,5'-dioxospiro[chromane-4,4'-imidazolidine]-2-carbonyl}piperazine], the IC50 against aldose reductase worked out at 0.045 µM; in assay [3] (setting [10]) it was 0.00012 M; in [3] (setting [11]), 1e-06 M; in the assay on platelet aggregation [2] (rat PRP, aggregation inducer ADP, read-out: IC50 ADP), 770 µM; in the assay on platelet aggregation [2] (setting [12]), 430 µM. Besides, the inhibition at 100 µM with right atrium (setting [6]) was more than 20%; in the assay with left atrium (setting [8]), 10 to 20%. In addition, the inhibition at 10 µM in the assay with right atrium (setting [7]) is 10 to 20%; in the assay with left atrium (setting [9]), 0%. In [4] (1.0 mg/kg i.v.), the “C.B.S. (coronary bloodstream)” value is given as 13.8±2.9. Further, the “P50 in mmHg Mean” value in the assay with erythrocytes came to 32.58 mmHg. For the same molecule, the Amelioration in % in the assay with poikilocytes (1.0 mg/kg intravenously) was 37.9%.

What is called IC50 is the concentration that gives 50% inhibition.
